Read-outs that look alike come from different tables or passages of the source.
Tested on: Gli1-mediated transcription
Assay: Gli1-mediated transcriptional luciferase reporter assay
Format: cell-based
Conditions: Shh-LIGHT2 cells, antagonist mode, purmorphamine 1.5 μM stimulation, 24 h
Description: Gli1-mediated transcriptional luciferase reporter assay was performed using Shh-LIGHT2 cells in order to evaluate the effects on activation and inhibition of Gli1-mediated transcription by the compounds of the disclosure. Brief assay procedure is provided below. […] Shh-LIGHT2 cells were harvested from about 80% confluent 10-cm dish using 0.25% Trypsin-EDTA solution. Medium was removed, and cells were washed with 5 mL DPBS and aspirated. Then, 1 mL 0.25% Trypsin-EDTA solution was added to a 10-cm dish. The dish was placed in the incubator for 1-3 minutes, or until cells have detached. 3 mL of cell growth medium (DMEM, 10% FBS, 1% PenStrep, 1% sodium pyruvate, and 1% GlutaMax) was added to the 10-cm dish, and the contents were transferred to a conical tube. […] The cell assay plate was removed from incubator after cells reached confluency. The culture medium was then manually removed from the cell plates, and the plates were centrifuged at 200 rpm for 30 seconds. […] After 30 min incubation of antagonist, cells were stimulated with agonist (purmorphamine, 5 μL, 1.5 μM final), then incubate for 24 h at 37° C./5% CO2. […] Luciferase assay: After incubation, the cell assay plate was allowed to acclimate to room temperature. Then, 20 μL of Duo-Glo® Luciferase Reagent (Promega) was added to each well of cell assay plate. The plate was briefly spun down, mixed, and incubated for 30 minutes at room temperature. The cell plate was read using luminometer for firefly luminescence activity. Then, 20 μL of Duo-Glo® Step&Glo® Reagent (Promega) was added to each well of cell assay plate. The plate was briefly spun down, mixed, and incubated for 30 minutes at room temperature. The cell plate was read using luminometer for Renilla luminescence activity. Ratio of firefly: Renilla luminescence was calculated for each well. The compound well ratio was normalized to the ratio from a control well.

[1] = firefly luminescence, read-out: Gli1 IC50 firefly
[2] = ratio of firefly:Renilla luminescence, read-out: Gli1 IC50 firefly:Renilla ratio

Compound | IC50 [1] [µM] | IC50 [2] [µM]
Cn1c(-c2ccc(C3CC3)cc2Cl)nc2c1CN(C1CCc3ccc(Cl)cc3C1)CC2 (stereo not shown) [Example 163, 5-(7-chloro-1,2,3,4-tetrahydronaphthalen-2-yl)-2-(2-chloro-4-cyclopropylphenyl)-3-methyl-4,5,6,7-tetrahydro-3H-imidazo[4,5-c]pyridine] | < 0.1 | < 0.1
Cn1c(-c2ccc(C3CC3)cc2Cl)nc2c1CCN(C1CCc3ccc(Cl)cc3C1)C2 (stereo not shown) [Example 164, 5-(7-chloro-1,2,3,4-tetrahydronaphthalen-2-yl)-2-(2-chloro-4-cyclopropylphenyl)-1-methyl-4,5,6,7-tetrahydro-1H-imidazo[4,5-c]pyridine] | 0.1 to 0.49 | 0.1 to 0.49
Clc1ccccc1-c1nc2c([nH]1)CC(N1CCc3cccc(Cl)c3C1)CC2 (stereo not shown) [Example 185, 8-chloro-2-(2-(2-chlorophenyl)-4,5,6,7-tetrahydro-1H-benzo[d]imidazol-6-yl)-1,2,3,4-tetrahydroisoquinoline] | < 0.1 | < 0.1
Clc1ccccc1-c1nc2c([nH]1)C[C@@H](N1CCc3cccc(Cl)c3C1)CC2 [Example 185-S, (S)-8-chloro-2-(2-(2-chlorophenyl)-4,5,6,7-tetrahydro-1H-benzo[d]imidazol-6-yl)-1,2,3,4-tetrahydroisoquinoline] | 0.1 to 0.49 | < 0.1
Clc1ccccc1-c1nc2c([nH]1)CC(N1Cc3cccc(Cl)c3C1)CC2 (stereo not shown) [Example 186, 6-(4-chloroisoindolin-2-yl)-2-(2-chlorophenyl)-4,5,6,7-tetrahydro-1H-benzo[d]imidazole] | < 0.1 | < 0.1
Cn1c(-c2ccccc2Cl)nc2c1CC(N1CCc3cccc(Cl)c3C1)CC2 (stereo not shown) [Example 187, 8-chloro-2-(2-(2-chlorophenyl)-1-methyl-4,5,6,7-tetrahydro-1H-benzo[d]imidazol-6-yl)-1,2,3,4-tetrahydroisoquinoline] | < 0.1 | < 0.1
Cn1c(-c2ccccc2Cl)nc2c1CCC(N1CCc3cccc(Cl)c3C1)C2 (stereo not shown) [Example 188, 8-chloro-2-(2-(2-chlorophenyl)-1-methyl-4,5,6,7-tetrahydro-1H-benzo[d]imidazol-5-yl)-1,2,3,4-tetrahydroisoquinoline] | < 0.1 | < 0.1
Cn1c(-c2ccccc2Cl)nc2c1CC(N1Cc3cccc(Cl)c3C1)CC2 (stereo not shown) [Example 189, 6-(4-chloroisoindolin-2-yl)-2-(2-chlorophenyl)-1-methyl-4,5,6,7-tetrahydro-1H-benzo[d]imidazole] | < 0.1 | < 0.1
